# Like-named read-outs stand apart in the source and are kept apart here. Positions of bridges follow the written chain, without caps; N, C: chain ends. No end group written: not given here.
# How the values were obtained:
# JAWSII cells = experiment: Cell cytotoxicity assay (MTT); assay type: cell-based, mouse; details: 4, 16, 64, 256 μg/ml for 4, 12, 24, and 48 hour
# Experimental: The Cell Cytotoxicity Assay includes the following procedures. Mouse immature dendritic cell line, JAWSII (ATCC CRL-11904™), was cultured in Alpha minimum essential medium with ribonucleosides, deoxyribonucleosides, 4 mM L-glutamine, 1 mM sodium pyruvate, and 5 ng/ml murine Granulocyte macrophage colony-stimulating factor (GM-CSF) then supplemented with 20% FBS, 100 U/ml penicillin, and 100 μg/ml streptomycin at 37° C. in humidified air with 5% CO2. CCR-2 transfected CHO-K1 cells were cultured in RPMI-1640 supplemented with 10% FBS, 2 mM L-glutamine, 100 units/ml penicillin and streptomycin, and 500 μg/ml G418 at 37° C. in humidified air with 5% CO2. The cytotoxicity of CAMPs (SEQ ID NOs: 1, 2, 3, and 4) to JASWII and CHO-K1 cells was determined using MTT (3-(4,5-dimethylthiazol-2-yl)-2,5-diphenyltetrazolium bromide, Thermo Fisher Scientific) cell proliferation assay. Cells (5×10^3 cells/well) in 96-well microtiter plates were treated with peptides at 64, 128, 256, and 512 μg/ml for 4, 12, 24, and 48 hours at 37° C. After treatment, 20 μl of 12 mM MTT solution was added to each well and the plate was incubated for 4 hours. […] The plates were read using a spectrophotometer at 540 nm. The viability of treated cells was expressed as the percentage of viability relative to the untreated control. […]
# CHO-K1 cells = experiment: Cell cytotoxicity assay (MTT); assay type: cell-based, hamster; details: 4, 16, 64, 256 μg/ml for 4, 12, 24, and 48 hour
# Experimental: The Cell Cytotoxicity Assay includes the following procedures. Mouse immature dendritic cell line, JAWSII (ATCC CRL-11904™), was cultured in Alpha minimum essential medium with ribonucleosides, deoxyribonucleosides, 4 mM L-glutamine, 1 mM sodium pyruvate, and 5 ng/ml murine Granulocyte macrophage colony-stimulating factor (GM-CSF) then supplemented with 20% FBS, 100 U/ml penicillin, and 100 μg/ml streptomycin at 37° C. in humidified air with 5% CO2. CCR-2 transfected CHO-K1 cells were cultured in RPMI-1640 supplemented with 10% FBS, 2 mM L-glutamine, 100 units/ml penicillin and streptomycin, and 500 μg/ml G418 at 37° C. in humidified air with 5% CO2. The cytotoxicity of CAMPs (SEQ ID NOs: 1, 2, 3, and 4) to JASWII and CHO-K1 cells was determined using MTT (3-(4,5-dimethylthiazol-2-yl)-2,5-diphenyltetrazolium bromide, Thermo Fisher Scientific) cell proliferation assay. Cells (5×10^3 cells/well) in 96-well microtiter plates were treated with peptides at 64, 128, 256, and 512 μg/ml for 4, 12, 24, and 48 hours at 37° C. After treatment, 20 μl of 12 mM MTT solution was added to each well and the plate was incubated for 4 hours. The medium in each well was replaced with 100 μl of dimethyl sulfoxide (DMSO, Sigma-Aldrich) to dissolve MTT crystals. The plates were read using a spectrophotometer at 540 nm. The viability of treated cells was expressed as the percentage of viability relative to the untreated control. The experiment was performed in triplicate.
# (§1) Chicken macrophage cell lines MQ-NCSU and HD11 were maintained in RPMI-1640 media supplemented with 10% fetal bovine serum (FBS), 2% chicken serum, 100 U/ml penicillin and 100 μg/ml streptomycin (Sigma-Aldrich) at 37° C. in humidified air with 5% CO2. CHO-K1 cells were cultured in the same media without 2% chicken serum. For CCR2-transfected CHO-K1 cells, medium was supplemented with 500 μg/ml G418 was added (Sigma-Aldrich). Murine immature dendritic cell line JAWSII (ATCC CRL-11904™) was cultured in Alpha minimum essential medium containing 4 mM L-glutamine, 1 mM sodium pyruvate, 5 ng/ml murine Granulocyte macrophage colony-stimulating factor (GM-CSF), 20% FBS, 100 U/ml penicillin and 100 μg/ml streptomycin at 37° C. in humidified air with 5% CO2. The cell cytotoxicity was determined using the MTT (3-(4,5-dimethylthiazol-2-yl)-2,5-diphenyltetrazolium bromide cell proliferation assay according to the manufacturer's instruction (Thermo Fisher Scientific). Briefly, cells (5×10^3 cells/well) were seeded in 96-well tissue culture plates, incubated overnight and treated with the analogues at concentrations of 4, 16, 64 and 256 μg/ml for 4, 12, 24 and 48 hours at 37° C. After treatment, […] 12 mM MTT solution was added to each well. The plate was incubated for 4 hours and read at 540 nm. Viability was expressed as percentage of viable cells relative to the untreated control. The experiments were performed in triplicate.
# E. coli (ATCC 25922) = assay type: cell-based
# Experimental: (§2) The minimum inhibitory concentrations (MIC) of AvBDs (SEQ ID NOs: 5, 6, 7, 8, 9, 10, 11, 12, and 13) were determined under low salt and standard conditions according to the guidelines of the Clinical and Laboratory Standards Institute (CLSI). […] An equal volume […] of bacterial suspension was added to each well of the plate. The final bacterial concentration in the wells was 5×10^5 CFU/ml. […] To complement MIC-1s assays, the minimum bactericidal concentrations (MBC) were evaluated by sub-culturing the contents of the first two clear wells obtained in the MIC-1s assay onto LB agar plates. All assays were conducted in triplicate. The lowest peptide concentration inhibiting about, at least, or more than 99% of bacterial growth was defined as MBC-1s. The analogues were regarded as bactericidal when the MBC was determined to be no more than four times the MIC.
# [1] = tested on: P. aeruginosa (ATCC 27853); assay type: cell-based
# Experimental: as §2
# [2] = tested on: S. Typhimurium (ATCC 14028); assay type: cell-based
# Experimental: as §2
# S. aureus (ATCC 29213) [3] = assay type: cell-based
# Experimental: as §2
# [4] = tested on: chicken macrophage cell line HD11; experiment: Cell cytotoxicity assay (MTT); assay type: cell-based; details: 4, 16, 64, 256 μg/ml for 4, 12, 24, and 48 hour
# Experimental: as §1, with “The experiments were performed in triplicate.” left out
# [5] = tested on: chicken macrophage cell line MQ-NCSU; experiment: Cell cytotoxicity assay (MTT); assay type: cell-based; details: 4, 16, 64, 256 μg/ml for 4, 12, 24, and 48 hour
# Experimental: as §1, with “The experiments were performed in triplicate.” left out
# P. aeruginosa = assay type: cell-based
# Experimental: (§3) The minimum inhibitory concentrations (MICs) of CAMPs (SEQ ID NOs: 1, 2, 3, and 4) were determined according to the guidelines of the Clinical and Laboratory Standards Institute (CLSI). The Muller Hinton (MH) II broth used in MIC assay was supplemented with 20-25 mg/L of calcium and 10-12.5 mg/L of magnesium. In brief, peptides were two-fold serially diluted (2 to 256 μg/ml) in a 96-well microtiter plate (Nunc™, Thermo Fisher Scientific) and an equal volume (μl) of bacterial suspension was added to each well of the plate. The final bacterial concentration in the wells was 5×10^5 CFU/ml. […] All assays were conducted in triplicate.
# S. aureus (ATCC 29213) [6] = assay type: cell-based; remark: listed apart in the source
# Experimental: as §3
# [7] = tested on: methicillin-resistant S. pseudintermedius (MRSP); assay type: cell-based
# Experimental: as §3
# [8] = tested on: Gram-positive bacteria (S. aureus and MRSP strains); experiment: MIC assay, Example One, pooled over Gram-positive strains; assay type: cell-based, S. pseudintermedius; details: mean over the Gram-positive strains of Table 2
# Experimental: as §3
# The Hemolytic Assay includes the following procedures. […] The supernatant was transferred to a 96-well flat-bottomed polystyrene plate (Thermo Fisher Scientific), and the amount of hemoglobin released into the supernatant was determined by measuring the absorbance with a spectrophotometer at 540 nm. Hemolytic activity was expressed as the percentage of hemolysis and calculated using the following equation: hemolysis (%)=(As−A0)/(A100−A0)×100, where As is the absorbance of the sample, A100 is the absorbance of completely lysed RBCs in 0.2% Triton X-100, and A0 is the absorbance in the complete absence of hemolysis (PBS treatment). […] Therapeutic index (T.I.) was calculated according to a previously published formula: T.I.=MHC/MICGM. […]
# [9] = standard conditions, CLSI guidelines
sequence,measurement,setting,value
"GPHSCNHQRGLCRVGNCNPGYYLAKYCFSPVILCCKPLSPTPTKT (disulfide 5-34, 12-27, 17-35) [AvBD-12/6]",effect on cell viability,JAWSII cells,did not appear to have any effect on cell viability
same,effect on cell viability,CHO-K1 cells,did not appear to have any effect on cell viability
same,MBC-Is,E. coli (ATCC 25922); low salt condition (5 mM NaCl),32 µg/mL
same,MIC-Is,E. coli (ATCC 25922); low salt condition (5 mM NaCl),8 µg/mL
same,MIC,E. coli (ATCC 25922); [9],256 µg/mL
same,MIC-Is,[1]; low salt condition (5 mM NaCl),64 µg/mL
same,MIC,[1]; [9],>256 µg/mL
same,MBC-Is,[2]; low salt condition (5 mM NaCl),64 µg/mL
same,MIC-Is,[2]; low salt condition (5 mM NaCl),16 µg/mL
same,MIC,[2]; [9],>256 µg/mL
same,MBC-Is,S. aureus (ATCC 29213) [3]; low salt condition (5 mM NaCl),256 µg/mL
same,MIC-Is,S. aureus (ATCC 29213) [3]; low salt condition (5 mM NaCl),256 µg/mL
same,MIC,S. aureus (ATCC 29213) [3]; [9],256 µg/mL
same,effect on cell viability,[4],did not appear to have any effect on cell viability
same,effect on cell viability,[5],did not appear to have any effect on cell viability
"SPIHACRYQRGVCIPGPCRWPYYRVGSCGSGLKSCCVRNRWA (disulfide 6-35, 13-28, 18-36) [AvBD-6]",MIC,P. aeruginosa; 24 h,>256 µg/mL
same,MICAverage G−,P. aeruginosa; mean over the Gram-negative (P. aeruginosa) strains of Table 2,>256 µg/mL
same,MIC,S. aureus (ATCC 29213) [6],256 µg/mL
same,MIC,[7]; S. pseudintermedius (13164006),>256 µg/mL
same,MIC,[7]; S. pseudintermedius (13193006),>256 µg/mL
same,MIC,[7]; S. pseudintermedius (13207007),>256 µg/mL
same,MIC,[7]; S. pseudintermedius (13228005),>256 µg/mL
same,MIC,[7]; S. pseudintermedius (13267017),>256 µg/mL
same,MIC,[7]; S. pseudintermedius (13269013),>256 µg/mL
same,MICAverage G+,[8],≥256 µg/mL
same,MBS-Is,[1]; low salt condition (5 mM NaCl),128 µg/mL
